# Test results as given in US7517517B2 (Janssen Pharmaceutica N.V., priority 2002, dated 2009).
# Key:
# [1] = test system: glutamate site of the NMDA receptor; assay: [3H]CGP39653 binding to rat forebrain membranes; details: [3H]CGP39653, rat forebrain; tested up to 10 μM
# Protocol: (§1) Tissue preparation. Male Wistar rats (˜200 g) were sacrificed by decapitation. The brains were rapidly removed and forebrain was dissected. The tissue was homogenized with an Ultra Turrax in 20 volumes of ice-cold H2O and was centrifuged at 48,000 g for 20 min. After homogenisation using a DUAL homogeniser, membranes were washed by centrifugation at 48,000 g for 10 min. The pellet was then suspended in 20 volumes of 50 mM Tris-HCl, pH 7.4 containing 0.04% Triton X-100 and again centrifuged at 48,000 g for 20 min. The final pellet was frozen at −80° C.
# (§2) In vitro binding assay. At the day of the experiment, the pellet was thawed, washed and rehomogenised using a DUAL in ice-cold 50 mM Tris-acetate, pH 7.4. Assay conditions for the different radioligands were as follows. The final concentration of membrane in the assay was 20 mg/ml (wet weight) for [^3H]Ro 48-8587 and [^3H]L689560 and was 10 mg/ml (wet weight) for [^3H]CGP39653 and [^3H]MK-801. Radioligand concentrations of 2 nM [^3H]Ro 48-8587, 2 nM [^3H]L689560, 2 nM [^3H]CGP39653 and 3 nM [^3H]MK-801 were used. […] For [^3H]L689560 and [^3H]MK-801 binding, 100 μM D-serine or 10 μM phencyclidine were used to define non-specific binding, respectively. […] Radioactivity collected on the filters was counted as above.
# [2] = target: T1, rat mGlu1a receptor (Rattus norvegicus, UniProt P23385); assay: [3H]Compound A binding to rat mGlu1a receptor CHO-dhfr− membranes (saturation, kinetics, inhibition); details: mean ± SD of 3–4 experiments
# T1 construct: host or cells: CHO-dhfr- cells
# T1 sequence (P23385 19-1199): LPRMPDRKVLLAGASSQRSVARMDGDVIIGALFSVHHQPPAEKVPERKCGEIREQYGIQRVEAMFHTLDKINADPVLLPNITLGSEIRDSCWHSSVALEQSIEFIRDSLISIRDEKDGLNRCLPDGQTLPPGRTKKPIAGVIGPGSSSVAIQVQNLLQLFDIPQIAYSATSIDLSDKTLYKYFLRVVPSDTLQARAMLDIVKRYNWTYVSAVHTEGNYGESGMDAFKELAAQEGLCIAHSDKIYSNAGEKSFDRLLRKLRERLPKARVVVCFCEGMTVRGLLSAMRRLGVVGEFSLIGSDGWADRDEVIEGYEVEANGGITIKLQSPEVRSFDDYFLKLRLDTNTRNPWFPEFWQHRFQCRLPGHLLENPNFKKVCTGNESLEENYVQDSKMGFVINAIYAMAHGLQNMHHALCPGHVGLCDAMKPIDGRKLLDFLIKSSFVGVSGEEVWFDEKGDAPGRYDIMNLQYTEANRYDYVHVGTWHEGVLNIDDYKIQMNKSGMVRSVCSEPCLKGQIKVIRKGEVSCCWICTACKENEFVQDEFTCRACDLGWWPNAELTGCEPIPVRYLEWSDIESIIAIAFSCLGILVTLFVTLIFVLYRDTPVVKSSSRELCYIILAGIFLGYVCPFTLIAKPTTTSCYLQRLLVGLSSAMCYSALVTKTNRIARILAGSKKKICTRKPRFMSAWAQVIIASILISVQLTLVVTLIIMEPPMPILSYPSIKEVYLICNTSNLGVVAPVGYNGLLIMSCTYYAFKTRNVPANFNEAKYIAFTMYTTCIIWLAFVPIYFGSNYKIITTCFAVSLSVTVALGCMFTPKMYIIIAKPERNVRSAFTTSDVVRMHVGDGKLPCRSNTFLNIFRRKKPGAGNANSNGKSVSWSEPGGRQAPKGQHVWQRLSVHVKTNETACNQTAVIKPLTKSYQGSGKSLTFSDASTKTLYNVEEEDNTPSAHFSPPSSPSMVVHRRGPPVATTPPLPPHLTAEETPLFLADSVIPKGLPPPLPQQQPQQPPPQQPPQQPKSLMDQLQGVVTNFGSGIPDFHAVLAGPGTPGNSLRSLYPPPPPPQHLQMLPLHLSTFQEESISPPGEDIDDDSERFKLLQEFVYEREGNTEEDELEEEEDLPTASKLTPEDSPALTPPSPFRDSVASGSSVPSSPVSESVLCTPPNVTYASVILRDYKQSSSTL
# [3] = target: T2, rat mGlu2 receptor (Rattus norvegicus, UniProt P31421); assay: [35S]GTPγS binding to membranes from CHO-dhfr− cells expressing the rat mGlu2 receptor; type: biochemical
# T2 construct: host or cells: CHO-dhfr- cells
# T2 sequence (P31421 19-872): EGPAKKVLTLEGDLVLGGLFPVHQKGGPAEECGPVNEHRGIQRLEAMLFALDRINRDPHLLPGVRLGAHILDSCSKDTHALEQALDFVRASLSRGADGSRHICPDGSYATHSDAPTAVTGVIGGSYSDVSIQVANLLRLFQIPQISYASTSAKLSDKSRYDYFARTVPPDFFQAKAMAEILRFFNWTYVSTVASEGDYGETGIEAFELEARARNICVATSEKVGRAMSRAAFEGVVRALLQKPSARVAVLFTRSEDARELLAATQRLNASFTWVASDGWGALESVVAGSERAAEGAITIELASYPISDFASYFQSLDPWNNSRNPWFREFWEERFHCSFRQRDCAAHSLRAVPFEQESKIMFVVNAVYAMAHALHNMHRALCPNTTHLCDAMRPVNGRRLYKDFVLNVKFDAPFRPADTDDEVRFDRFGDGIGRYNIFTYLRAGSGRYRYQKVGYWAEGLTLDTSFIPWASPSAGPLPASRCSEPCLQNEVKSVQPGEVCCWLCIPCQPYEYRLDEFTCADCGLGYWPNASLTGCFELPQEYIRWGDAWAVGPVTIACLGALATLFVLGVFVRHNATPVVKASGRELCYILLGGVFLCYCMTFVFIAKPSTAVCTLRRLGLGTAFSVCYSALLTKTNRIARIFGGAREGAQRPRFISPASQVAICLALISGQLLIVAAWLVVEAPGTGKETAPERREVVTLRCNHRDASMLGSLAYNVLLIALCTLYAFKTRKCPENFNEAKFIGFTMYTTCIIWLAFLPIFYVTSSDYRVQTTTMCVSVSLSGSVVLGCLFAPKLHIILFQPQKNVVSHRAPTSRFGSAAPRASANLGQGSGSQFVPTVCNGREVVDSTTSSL
# Protocol: (§3) Confluent cells were washed in ice-cold phosphate-buffered saline and stored at −20° C. until membrane preparation. After thawing, cells were suspended in 50 mM Tris-HCl, pH 7.4 and collected through centrifugation for 10 min at 23,500 g at 4° C. The cells were lysed in 10 mM hypotonic Tris-HCl, pH 7.4. After recentrifugation for 20 min at 30,000 g at 4° C., the pellet was homogenized with an Ultra Turrax homogenizer in 50 mM Tris-HCl, pH 7.4. Protein concentrations were measured by the Bio-Rad protein assay using bovine serum albumin as standard.
# (§4) Membranes were thawed on ice and diluted in 10 mM HEPES acid, 10 mM HEPES salt, pH 7.4, containing 100 mM NaCl, 3 mM MgCl2, 3 μM GDP and 10 μg/ml saponine. Assay mixtures contained 10 μg of membrane protein and were pre-incubated with compounds or buffer for 5 min at 37° C. […] [^35S]GTPγS was added to a final concentration of 0.1 nM for another 30 min at 37° C. Reactions were terminated by rapid filtration through Unifilter-96 GF/B filter plates (Packard, Meriden, Conn.) using a 96-well Packard filtermate harvester. Filters were washed 2 times with ice-cold 10 mM NaH2PO4/10 mM Na2HPO4 buffer, pH 7.4. Filter-bound radioactivity was counted in a Microplate Scintillation and Luminesence Counter from Packard.
# [4] = target: T1, rat mGlu1a receptor; assay: Intracellular Ca2+ response in rat mGlu1a receptor expressing CHO-dhfr− cells (FLIPR); type: cell-based
# [5] = target: T3, rat mGlu3 receptor (Rattus norvegicus, UniProt P31422); assay: [35S]GTPγS binding to membranes from CHO-dhfr− cells expressing the rat mGlu3 receptor; type: biochemical
# T3 construct: host or cells: CHO-dhfr- cells
# T3 sequence (P31422 23-879): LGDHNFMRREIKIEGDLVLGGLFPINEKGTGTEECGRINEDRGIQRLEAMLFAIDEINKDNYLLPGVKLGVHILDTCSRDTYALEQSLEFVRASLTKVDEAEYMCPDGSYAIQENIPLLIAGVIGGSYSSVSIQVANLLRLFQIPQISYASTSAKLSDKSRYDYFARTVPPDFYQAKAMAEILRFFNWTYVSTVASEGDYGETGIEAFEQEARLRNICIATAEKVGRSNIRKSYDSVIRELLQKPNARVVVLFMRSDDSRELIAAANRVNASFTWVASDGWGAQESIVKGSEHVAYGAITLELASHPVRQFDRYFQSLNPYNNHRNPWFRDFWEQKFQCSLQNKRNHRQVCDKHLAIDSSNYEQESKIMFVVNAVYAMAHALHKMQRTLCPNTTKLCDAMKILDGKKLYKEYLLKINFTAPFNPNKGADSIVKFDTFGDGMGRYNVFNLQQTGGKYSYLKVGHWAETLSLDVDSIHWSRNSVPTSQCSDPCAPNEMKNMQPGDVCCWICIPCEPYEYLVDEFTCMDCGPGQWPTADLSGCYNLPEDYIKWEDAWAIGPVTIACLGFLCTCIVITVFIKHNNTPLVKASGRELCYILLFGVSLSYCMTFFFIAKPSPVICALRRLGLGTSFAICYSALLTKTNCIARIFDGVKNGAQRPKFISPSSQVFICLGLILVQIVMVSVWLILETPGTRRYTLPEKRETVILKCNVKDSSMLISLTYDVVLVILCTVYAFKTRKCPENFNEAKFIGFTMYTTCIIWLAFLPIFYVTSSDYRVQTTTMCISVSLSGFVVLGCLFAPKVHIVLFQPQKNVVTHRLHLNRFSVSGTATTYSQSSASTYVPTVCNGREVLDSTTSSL
# Protocol: as §3, §4
# [6] = target: T4, rat mGlu4 receptor (Rattus norvegicus, UniProt P31423); assay: [35S]GTPγS binding to membranes from CHO-dhfr− cells expressing the rat mGlu4 receptor; type: biochemical
# T4 construct: host or cells: CHO-dhfr- cells
# T4 sequence (P31423 33-912): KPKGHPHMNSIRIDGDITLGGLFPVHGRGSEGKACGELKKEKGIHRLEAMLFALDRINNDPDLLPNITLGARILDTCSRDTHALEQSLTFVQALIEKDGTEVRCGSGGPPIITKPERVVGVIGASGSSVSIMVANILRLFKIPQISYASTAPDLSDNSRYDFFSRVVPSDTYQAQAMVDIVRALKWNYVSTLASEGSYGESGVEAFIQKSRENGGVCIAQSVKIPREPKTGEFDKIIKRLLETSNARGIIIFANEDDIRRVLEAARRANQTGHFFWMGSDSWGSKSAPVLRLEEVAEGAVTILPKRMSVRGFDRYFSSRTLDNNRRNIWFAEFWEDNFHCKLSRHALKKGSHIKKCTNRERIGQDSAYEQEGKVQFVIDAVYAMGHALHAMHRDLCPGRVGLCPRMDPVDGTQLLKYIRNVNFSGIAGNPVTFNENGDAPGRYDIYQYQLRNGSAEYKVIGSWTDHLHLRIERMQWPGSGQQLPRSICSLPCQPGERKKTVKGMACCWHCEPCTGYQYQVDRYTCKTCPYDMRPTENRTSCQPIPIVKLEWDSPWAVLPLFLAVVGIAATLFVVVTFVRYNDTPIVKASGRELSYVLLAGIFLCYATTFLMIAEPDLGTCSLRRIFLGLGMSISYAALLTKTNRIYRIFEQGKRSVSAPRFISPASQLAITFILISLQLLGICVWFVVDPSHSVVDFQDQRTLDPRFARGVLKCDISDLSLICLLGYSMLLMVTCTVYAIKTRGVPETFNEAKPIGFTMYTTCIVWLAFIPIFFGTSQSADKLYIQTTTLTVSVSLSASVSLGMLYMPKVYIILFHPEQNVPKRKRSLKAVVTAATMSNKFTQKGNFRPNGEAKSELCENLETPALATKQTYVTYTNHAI
# Protocol: as §3, §4
# [7] = target: T5, rat mGlu6 receptor (Rattus norvegicus, UniProt P35349); assay: [35S]GTPγS binding to membranes from CHO-dhfr− cells expressing the rat mGlu6 receptor; type: biochemical
# T5 construct: host or cells: CHO-dhfr- cells
# T5 sequence (P35349 24-871): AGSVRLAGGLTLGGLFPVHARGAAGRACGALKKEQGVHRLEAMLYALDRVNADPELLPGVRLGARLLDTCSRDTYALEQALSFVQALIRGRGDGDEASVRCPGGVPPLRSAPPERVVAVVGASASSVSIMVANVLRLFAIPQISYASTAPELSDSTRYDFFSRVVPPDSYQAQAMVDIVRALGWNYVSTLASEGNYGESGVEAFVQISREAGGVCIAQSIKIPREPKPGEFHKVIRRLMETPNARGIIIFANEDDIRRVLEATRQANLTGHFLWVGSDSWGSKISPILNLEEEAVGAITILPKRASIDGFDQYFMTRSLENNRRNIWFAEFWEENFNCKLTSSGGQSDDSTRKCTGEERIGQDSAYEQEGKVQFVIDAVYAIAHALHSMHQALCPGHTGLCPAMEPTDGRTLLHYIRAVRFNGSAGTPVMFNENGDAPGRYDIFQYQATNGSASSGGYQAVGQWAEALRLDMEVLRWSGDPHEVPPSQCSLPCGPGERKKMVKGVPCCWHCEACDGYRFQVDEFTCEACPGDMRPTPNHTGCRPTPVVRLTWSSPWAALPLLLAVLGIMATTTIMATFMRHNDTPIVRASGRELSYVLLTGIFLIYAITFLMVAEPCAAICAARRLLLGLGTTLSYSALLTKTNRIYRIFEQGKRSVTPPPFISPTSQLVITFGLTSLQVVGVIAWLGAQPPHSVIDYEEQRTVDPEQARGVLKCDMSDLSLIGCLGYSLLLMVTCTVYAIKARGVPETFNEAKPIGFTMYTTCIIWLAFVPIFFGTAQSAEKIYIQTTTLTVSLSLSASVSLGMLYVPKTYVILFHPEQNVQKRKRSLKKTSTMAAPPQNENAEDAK
# Protocol: as §3, §4
# [8] = target: T6, human mGlu1a receptor (Homo sapiens, UniProt Q13255); assay: Intracellular Ca2+ response in human mGlu1a receptor expressing L929sA cells (FLIPR); type: cell-based
# T6 construct: expressed in transfected cells; host or cells: L929sA cells
# [9] = target: T1, rat mGlu1a receptor; assay: [3H]quisqualate binding to rat mGlu1a receptor CHO-dhfr− membranes (saturation, inhibition)
# [10] = target: T7, rat mGlu5 receptor (Rattus norvegicus, UniProt P31424); assay: Intracellular Ca2+ response in rat mGlu5 receptor expressing CHO-dhfr− cells (FLIPR); type: cell-based; details: tested up to a concentration of 10 μM
# T7 construct: host or cells: CHO-dhfr- cells
# Protocol: L929sA cells stably expressing the human mGlu1a receptor were obtained as described in Lavreysen et al., Mol. Pharmacol. 61:1244-1254, 2002 and were cultured in Glutamax-I medium supplemented with 10% heat inactivated dialysed foetal calf serum, 0.1 mg/ml streptomycin sulphate and 100 units/ml penicillin. CHO-dhfr^− cells stably expressing the rat mGlu1a, -2, -3, -4, -5 and -6 receptor were a kind gift from S. Nakanishi (Tokyo University, Japan) and were grown in DMEM with Glutamax-I with 10% heat inactivated dialysed foetal calf serum, 0.4 mM L-prolin, 0.2 mg/ml streptomycin sulphate and 200 units/ml penicillin. Cells were kept in an atmosphere of 37° C. and 5% CO2.
# Intracellular calcium ion levels ([Ca^2+]i) in human mGlu1a receptor expressing L929sA cells were measured using the Fluorometric Imaging Plate Reader (FLIPR, Molecular Devices, CA, USA), as described in Lavreysen et al., Mol. Pharmacol. 61:1244-1254, 2002. The same procedure was followed for CHO-dhfr^− cells expressing the rat mGlu1a receptor. For the rat mGlu5 receptor, cells were seeded at 30.000 cells/well 2 days before the experiment.
# [11] = test system: AMPA receptor; assay: [3H]Ro 48-8587 binding to rat forebrain membranes; details: [3H]Ro 48-8587, rat forebrain; tested up to 10 μM
# Protocol: as §1, §2
# [12] = target: T1, rat mGlu1a receptor; assay: IP response (basal IP accumulation) in rat mGlu1a receptor expressing CHO-dhfr− cells; type: cell-based
# [13] = target: T8, glycine site of the NMDA receptor (Rattus norvegicus, UniProt P35439); assay: [3H]L689560 binding to rat forebrain membranes; details: [3H]L689560, rat forebrain; tested up to 10 μM
# T8 construct: from tissue; host or cells: rat forebrain membranes
# Protocol: as §1, §2
# [14] = target: T7, rat mGlu5 receptor; assay: [3H]MPEP binding to rat mGlu5 receptor CHO-dhfr− membranes; details: rat mGlu5 receptor containing membranes; positive control
# [15] = read-out: IC50 for inhibition of glutamate-induced [35S]GTPγS activation
# [16] = ratio of IC50 values, rat mGlu1a Ca2+ assay
smiles,measurement,setting,value
O=C(Cc1ccccc1)c1ccc2nc3c(cc2c1)CCCO3 [Compound A],binding to the glutamate site of the NMDA receptor,[1],nor did it bind
same,Ki,"[2]; 2.5 nM [3H]Compound A, 30 min at 4° C.",1.35 ± 0.99 nM
same,Hill coefficient,[2]; inhibition of [3H]Compound A-binding,0.94 ± 0.04
same,glutamate Emax upon addition of compound (positive allosteric modulation),"[3]; 10 μM compound together with glutamate, rat mGlu2",not increased
same,IC50,[3]; [15],> 30 µM
same,agonist activity in [35S]GTPγS assay,"[3]; up to 30 μM, rat mGlu2",did not exhibit agonist activity
same,mode of antagonism,[4]; glutamate concentration-response curve in absence and presence of compound (FIG. 1B),non-competitive
same,inhibition of mGlu1a receptor-mediated signalling,[4]; in the presence of 100 nM-1 μM compound,Complete inhibition
same,times more potent than BAY 36-7620,[4]; [16],about 8 times
same,times more potent than CPCCOEt,[4]; [16],~500 times
same,IC50,"[4]; read-out: IC50, inhibition of the glutamate-induced increase in [Ca2+]i",0.0216 ± 0.005 µM
same,glutamate Emax upon addition of compound (positive allosteric modulation),"[5]; 10 μM compound together with glutamate, rat mGlu3",not increased
same,IC50,[5]; [15],> 30 µM
same,agonist activity in [35S]GTPγS assay,"[5]; up to 30 μM, rat mGlu3",did not exhibit agonist activity
same,glutamate Emax upon addition of compound (positive allosteric modulation),"[6]; 10 μM compound together with glutamate, rat mGlu4",not increased
same,IC50,[6]; [15],> 30 µM
same,agonist activity in [35S]GTPγS assay,"[6]; up to 30 μM, rat mGlu4",did not exhibit agonist activity
same,glutamate Emax upon addition of compound (positive allosteric modulation),"[7]; 10 μM compound together with glutamate, rat mGlu6",not increased
same,IC50,[7]; [15],> 30 µM
same,agonist activity in [35S]GTPγS assay,"[7]; up to 30 μM, rat mGlu6",did not exhibit agonist activity
same,IC50,[8],0.0104 ± 0.0047 µM
same,Ki,[9],> 1000 µM
same,effect on [3H]quisqualate binding (in words),[9]; rat mGlu1a receptor CHO-dhfr− membranes,did not displace
same,inhibition of glutamate-induced Ca2+ signaling,[10],did not inhibit
same,binding to the AMPA receptor,[11],did not bind
same,decrease of basal IP accumulation,"[12]; 1 μM compound, p<0.05",24±4%
same,maximal decrease of basal IP accumulation,[12]; 100 μM compound,33±3%
same,binding to the glycine site of the NMDA receptor,[13],nor did it bind
Cc1cccc(C#Cc2ccccc2)n1 [[^3H]MPEP],specific binding,[14],95%
